Reference: PMC5301252, “A new approach to quantification of mAb aggregates using peptide affinity probes” (Scientific Reports, 2017)

What was measured:
[1] = test system: control non-aggregated NISTmAb; test: Phage ELISA, binding to control NISTmAb; conditions: phage clone displaying the peptide; 2 hours, room temperature; absorbance 450 nm; three analytical replicates
Experimental: (§1) In the second step, a sample of the cross-linked NISTmAb was used as bait to screen a Ph.D.−12 phage display peptide library. The bait represents a mixture of monomer and cross-linked aggregated NISTmAb; this was also the only occasion when cross-linked sample was used. Phage display panning was performed in a subtractive manner. The library was initially depleted with control non-aggregated NISTmAb using three iterative cycles. The unbound phage was then screened on cross-linked NISTmAb aggregates, again using three iterative cycles of phage binding, elution, and amplification. After these rounds of panning, the single phage plaques were randomly picked up and amplified, and phage DNA was submitted for sequencing. In parallel, the ability to bind NISTmAb aggregates was evaluated using phage enzyme-linked immunosorbent assay (ELISA) for all selected phage clones. […] Clones #1 and #4 show respectively 9-fold and 7-fold better binding toward aggregated NISTmAb, compared to their binding toward control non-aggregated NISTmAb. […]
(§2) To assess the binding ability of the selected phages toward NISTmAb aggregates, 1 × 10^10 pfu of P02-C06 phage was incubated with 50 μg of NISTmAb aggregates at room temperature for 2 hours. […] Tetramethybezidine substrate reagent (eBioscience, San Diego, CA) was subsequently added and absorbance was read at 450 nm.

[2] = test system: NISTmAb aggregates generated by agitation; test: Phage ELISA, binding to aggregated NISTmAb versus control NISTmAb; conditions: phage clone displaying the peptide, 2 hours, room temperature
Experimental: as §1, §2

With GNNPLHVHHDKRGGG [P02-C04] the “affinity toward non-aggregated NISTmAb, compared to other clones” value [1] was “lowest”, the binding preference ([2]; aggregated vs control NISTmAb, absorbance 450 nm) was “preferential binding to NISTmAb aggregates” and the “fold better binding toward aggregated NISTmAb compared to control non-aggregated NISTmAb” value ([2]; 1 × 10^10 pfu, HRP anti-M13, absorbance 450 nm, three analytical replicates) was 7 -fold.
